Tests used:
Axl [1] = target: T1, Axl (Homo sapiens, UniProt P30530); assay: HTRF KinEASE-TK biochemical potency assay, AXL; set-up: purchased Invitrogen; conditions: 5 nM AXL, 700 μM ATP, 800 nM TK Substrate-biotin
T1 sequence (P30530 26-894): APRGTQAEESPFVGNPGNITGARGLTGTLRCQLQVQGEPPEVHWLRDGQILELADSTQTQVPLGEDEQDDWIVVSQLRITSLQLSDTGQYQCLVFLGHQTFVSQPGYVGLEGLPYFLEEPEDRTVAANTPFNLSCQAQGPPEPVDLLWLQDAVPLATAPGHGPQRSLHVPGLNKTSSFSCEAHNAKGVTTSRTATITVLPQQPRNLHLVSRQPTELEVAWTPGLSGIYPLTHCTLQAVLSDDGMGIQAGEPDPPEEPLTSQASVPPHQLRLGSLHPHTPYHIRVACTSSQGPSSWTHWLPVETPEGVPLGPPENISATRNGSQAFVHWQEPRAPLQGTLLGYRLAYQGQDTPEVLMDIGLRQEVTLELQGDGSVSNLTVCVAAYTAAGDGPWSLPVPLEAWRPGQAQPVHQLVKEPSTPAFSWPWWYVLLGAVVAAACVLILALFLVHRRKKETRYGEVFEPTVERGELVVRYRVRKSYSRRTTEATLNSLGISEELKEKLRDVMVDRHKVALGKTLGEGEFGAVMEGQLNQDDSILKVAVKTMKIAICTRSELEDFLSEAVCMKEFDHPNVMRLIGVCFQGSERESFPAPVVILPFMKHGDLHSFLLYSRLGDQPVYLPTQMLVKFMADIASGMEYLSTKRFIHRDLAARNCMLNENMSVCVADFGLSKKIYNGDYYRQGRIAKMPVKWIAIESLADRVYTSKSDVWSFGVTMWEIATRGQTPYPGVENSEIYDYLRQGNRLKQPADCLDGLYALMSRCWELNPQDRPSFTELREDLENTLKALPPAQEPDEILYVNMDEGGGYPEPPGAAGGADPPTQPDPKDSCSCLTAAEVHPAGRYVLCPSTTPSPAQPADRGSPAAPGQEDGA
In short: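 HTRF 665/620 nm read-out after streptavidin-XL665/anti-phosphotyrosine cryptate detection (1 h RT). Final reaction: 5 nM AXL or 1 nM TYRO3/MER, 800 nM TK substrate-biotin, 700 μM ATP, pH 7.4 HEPES buffer, 1% DMSO, 2 h RT, after 1 h enzyme–compound preincubation.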

Axl [2] = target: T1, Axl; assay: Axl NanoBRET intracellular kinase assay (intracellular binding, Cell Binding); set-up: host or cells: HEK-293; conditions: HEK-293 cells transfected with Axl-NanoLuc fusion vector; 0.35 μM K-5 NanoBRET tracer
In short: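 HEK-293 cells transiently transfected with Axl-NanoLuc fusion the day before were pre-incubated with compound for 1 h at 37 °C, 5% CO2 (0.5% DMSO), then with 0.35 μM K-5 NanoBRET tracer for 2 h. Tracer displacement was read as the 610/450 nm BRET ratio; IC50 from 4-parameter fit.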

Row | Structure (SMILES) | IC50 (Axl [1]) [nM] | IC50 (Axl [2]) [nM]
1 | C[C@H]1CCCN1C1CCc2ccc(-c3cnc4[nH]nc(-c5ccc(C(C)(C)O)c(Cl)c5)c4c3)cc2CC1 (stereo partly drawn) [Example 37, 2-(2-Chloro-4-(5-(7-((S)-2-methylpyrrolidin-1-yl)-6,7,8,9-tetrahydro-5H-benzo[7]annulen-2-yl)-1H-pyrazolo[3,4-b]pyridin-3-yl)phenyl)propan-2-ol] | < 100 | < 100
2 | Cc1cc(-c2n[nH]c3ncc(-c4ccc5c(c4)CC[C@@H](N4CCCC4)CC5)cc23)cc(Cl)c1C(=O)N1CCNCC1 [Example 56, 1-(2-Chloro-6-methyl-4-{5-[(7S)-7-(pyrrolidin-1-yl)-6,7,8,9-tetrahydro-5H-benzo[7]annulen-2-yl]-1H-pyrazolo[3,4-b]pyridin-3-yl}benzoyl)piperazine] | < 100 | < 100
3 | C[C@H]1CCCN1C1(C)CCc2ccc(-c3cnc4[nH]nc(-c5ccc(C(C)(C)O)c(Cl)c5)c4c3)cc2CC1 (stereo partly drawn) [Example 58, 2-[2-Chloro-4-(5-{7-methyl-7-[(2S)-2-methylpyrrolidin-1-yl]-6,7,8,9-tetrahydro-5H-benzo[7]annulen-2-yl}-1H-pyrazolo[3,4-b]pyridin-3-yl)phenyl]propan-2-ol] | < 100 | 100 to 1000
4 | C[C@@H]1CCCN1C1CCc2ccc(-c3cnc4[nH]nc(-c5ccc(C6(O)CCC6)c(Cl)c5)c4c3)cc2CC1 (stereo partly drawn) [Example 62, 1-[2-Chloro-4-(5-{7-[(2R)-2-methylpyrrolidin-1-yl]-6,7,8,9-tetrahydro-5H-benzo[7]annulen-2-yl}-1H-pyrazolo[3,4-b]pyridin-3-yl)phenyl]cyclobutan-1-ol] | < 100 | < 100
5 | C[C@H]1CCCN1C1CCc2ccc(-c3cnc4[nH]nc(-c5ccc(S(=O)(=O)C6CC6)cc5)c4c3)cc2CC1 (stereo partly drawn) [Example 24, 3-(4-(Cyclopropylsulfonyl)phenyl)-5-(7-((S)-2-methylpyrrolidin-1-yl)-6,7,8,9-tetrahydro-5H-benzo[7]annulen-2-yl)-1H-pyrazolo[3,4-b]pyridine] | < 100 | < 100
6 | C[C@@H]1CCCN1C1(C)CCc2ccc(-c3cnc4[nH]nc(-c5ccc(S(=O)(=O)C6CCC6)cc5)c4c3)cc2CC1 (stereo partly drawn) [Example 46, 3-(4-(Cyclobutylsulfonyl)phenyl)-5-(7-methyl-7-((R)-2-methylpyrrolidin-1-yl)-6,7,8,9-tetrahydro-5H-benzo[7]annulen-2-yl)-1H-pyrazolo[3,4-b]pyridine] | < 100 | < 100
7 | CC(C)(O)c1ccc(-c2n[nH]c3ncc(-c4ccc5c(c4)CCC4(CCCN4)CC5)cc23)cc1Cl (centres unmarked) [Example 96, 2-[2-Chloro-4-(5-{5,6,8,9-tetrahydrospiro[benzo[7]annulene-7,2′-pyrrolidin]-3-yl}-1H-pyrazolo[3,4-b]pyridin-3-yl)phenyl]propan-2-ol] | < 100 | > 1000
8 | Cc1cc(-c2n[nH]c3ncc(-c4ccc5c(c4)CC[C@@H](N4CCCC4)CC5)cc23)cc(C)c1C(=O)N1CCNCC1 [Example 55, 1-(2,6-Dimethyl-4-{5-[(7S)-7-(pyrrolidin-1-yl)-6,7,8,9-tetrahydro-5H-benzo[7]annulen-2-yl]-1H-pyrazolo[3,4-b]pyridin-3-yl}benzoyl)piperazine] | < 100 | < 100
9 | CS(=O)(=O)c1ccc(-c2n[nH]c3ncc(-c4ccc5c(c4)CCN(C4CCCC4)CC5)cc23)cc1Cl [Example 31, 7-(3-(3-Chloro-4-(methylsulfonyl)phenyl)-1H-pyrazolo[3,4-b]pyridin-5-yl)-3-cyclopentyl-2,3,4,5-tetrahydro-1H-benzo[d]azepine] | < 100 | 100 to 1000
10 | C[C@@H]1CCCN1C1(C)CCc2ccc(-c3cnc4[nH]nc(-c5ccc(S(=O)(=O)C(F)(F)F)cc5)c4c3)cc2CC1 (stereo partly drawn) [Example 8, (2R)-2-Methyl-1-{7-methyl-2-[3-(4-trifluoromethanesulfonylphenyl)-1H-pyrazolo[3,4-b]pyridin-5-yl]-6,7,8,9-tetrahydro-5H-benzo[7]annulen-7-yl}pyrrolidine] | < 100 | > 1000
11 | CC1(N2CCC[C@H]2CO)CCc2ccc(-c3cnc4[nH]nc(-c5ccc(S(=O)(=O)C6CC6)cc5)c4c3)cc2CC1 (stereo partly drawn) [Example 4, [(2S)-1-(2-{3-[4-(Cyclopropanesulfonyl)phenyl]-1H-pyrazolo[3,4-b]pyridin-5-yl}-7-methyl-6,7,8,9-tetrahydro-5H-benzo[7]annulen-7-yl)pyrrolidin-2-yl]methanol] | < 100 | < 100

Now from value to molecule:

Row | IC50 (Axl [1]) [nM] | IC50 (Axl [2]) [nM] | Structure (SMILES)
12 | < 100 | 100 to 1000 | COCCNCc1ccc(-c2n[nH]c3ncc(-c4ccc5c(c4)CCC(C)(N4CCC[C@H]4C)CC5)cc23)cc1 (stereo partly drawn) [Example 108, (2-Methoxyethyl)({[4-(5-{7-methyl-7-[(2R)-2-methylpyrrolidin-1-yl]-6,7,8,9-tetrahydro-5H-benzo[7]annulen-2-yl}-1H-pyrazolo[3,4-b]pyridin-3-yl)phenyl]methyl})amine]
13 | < 100 | > 1000 | C[C@@H]1CCCN1[C@@H]1CCc2cc(-c3cnc4[nH]nc(-c5ccc(S(=O)(=O)C6CC6)cc5)c4c3)cnc2CC1 [Example 101, (2R)-1-(3-{3-[4-(Cyclopropanesulfonyl)phenyl]-1H-pyrazolo[3,4-b]pyridin-5-yl}-5H,6H,7H,8H,9H-cyclohepta[b]pyridin-7-yl)-2-methylpyrrolidine]
14 | < 100 | < 100 | O=C1OCCN1c1ccc(-c2n[nH]c3ncc(-c4ccc5c(c4)CC[C@@H](N4C6COCC4C6)CC5)cc23)cc1 [Example 121, 3-(4-{5-[(7S)-7-{3-oxa-6-azabicyclo[3.1.1]heptan-6-yl}-6,7,8,9-tetrahydro-5H-benzo[7]annulen-2-yl]-2H-pyrazolo[3,4-b]pyridin-3-yl}phenyl)-1,3-oxazolidin-2-one]
15 | < 100 | 100 to 1000 | CCS(=N)(=O)c1ccc(-c2n[nH]c3ncc(-c4ccc5c(c4)CCC(C)(N4CCC[C@H]4C)CC5)cc23)cc1 (stereo partly drawn) [Example 100, Ethyl(imino)[4-(5-{7-methyl-7-[(2R)-2-methylpyrrolidin-1-yl]-6,7,8,9-tetrahydro-5H-benzo[7]annulen-2-yl}-1H-pyrazolo[3,4-b]pyridin-3-yl)phenyl]-λ^6-sulfanone]
16 | < 100 | 100 to 1000 | c1cc2c(cc1-c1cnc3[nH]nc(-c4ccc(N5C[C@H]6C[C@@H]5CO6)cc4)c3c1)CC[C@@H](N1C3COCC1C3)CC2 [Example 126, (1R,4R)-5-(4-{5-[(7S)-7-{3-oxa-6-azabicyclo[3.1.1]heptan-6-yl}-6,7,8,9-tetrahydro-5H-benzo[7]annulen-2-yl]-2H-pyrazolo[3,4-b]pyridin-3-yl}phenyl)-2-oxa-5-azabicyclo[2.2.1]heptane]
17 | < 100 | 100 to 1000 | O=C([C@@H]1CCCN1)N1CCc2ccc(-c3cnc4[nH]nc(-c5ccc(S(=O)(=O)C6CC6)cc5)c4c3)cc2CC1 [Example 112, 7-{3-[4-(Cyclopropanesulfonyl)phenyl]-1H-pyrazolo[3,4-b]pyridin-5-yl}-3-[(2S)-pyrrolidine-2-carbonyl]-2,3,4,5-tetrahydro-1H-3-benzazepine]
18 | < 100 | < 100 | C[C@@H]1CCCN1C1(C)CCc2ccc(-c3cnc4[nH]cc(-c5ccc(S(=O)(=O)C6CC6)cc5)c4c3)cc2CC1 (stereo partly drawn) [Example 105, (2R)-1-(2-{3-[4-(Cyclopropanesulfonyl)phenyl]-1H-pyrrolo[2,3-b]pyridin-5-yl}-7-methyl-6,7,8,9-tetrahydro-5H-benzo[7]annulen-7-yl)-2-methylpyrrolidine]
19 | < 100 | < 100 | COCCOc1ccc(-c2n[nH]c3ncc(-c4ccc5c(c4)CCC(C)(N4CCC[C@H]4C)CC5)cc23)cc1 (stereo partly drawn) [Example 110, 3-(4-(2-Methoxyethoxy)phenyl)-5-(7-methyl-7-((R)-2-methylpyrrolidin-1-yl)-6,7,8,9-tetrahydro-5H-benzo[7]annulen-2-yl)-1H-pyrazolo[3,4-b]pyridine]

From patent US20240246967A1, “AXL COMPOUNDS” (ARCUS BIOSCIENCES, INC., priority 2021, published 2024)
